Assay results: ChEMBL document CHEMBL1136846, “Investigation on the role of the tetrazole in the binding of thiotetrazolylacetanilides with HIV-1 wild type and K103N/Y181C double mutant reverse transcriptases” (Bioorg Med Chem Lett, 2009)

Legend:
[1] = biological target: Human immunodeficiency virus type 1 reverse transcriptase (Human immunodeficiency virus 1, UniProt Q72547); experiment: Inhibition of wild type HIV1 reverse transcriptase by scintillation proximity assay
[2] = tested on: Human immunodeficiency virus 1; experiment: Antiviral activity against HIV1 with transcriptase […] mutation infected in human C8166 cells assessed as inhibition of viral replication after 3 days by ELISA; assay type: functional, organism-based; details: Human immunodeficiency virus 1, C8166, 72 h
[3] = tested on: Human immunodeficiency virus 1; experiment: Antiviral activity against HIV1 infected in human C8166 cells assessed as inhibition of viral replication after 3 days by ELISA; assay type: functional, organism-based; details: Human immunodeficiency virus 1, C8166, 72 h

Row | SMILES | IC50 [1] | EC50 [2] | EC50 [3]
1 | Cc1ccc(-n2nnnc2SCC(=O)Nc2ccc(-c3ccc(OCC(=O)O)cc3)cc2Cl)c(Cl)c1 | 1.9 nM |  | 
2 | Cc1[nH]nc(OCC(=O)Nc2ccc(-c3ccc(CC(=O)O)cc3)cc2Cl)c1-c1ccc(C(C)(C)C)cc1Cl | 2090 nM |  | 
3 | Cc1ccc(-n2cc(C)nc2SCC(=O)Nc2ccccc2Cl)c(Cl)c1 | > 1000 nM |  | 
4 | Cc1[nH]nc(OCC(=O)Nc2ccc(C#CC(C)(C)C(=O)O)cc2Cl)c1-c1ccc(C(C)(C)C)cc1Cl | 2400 nM | 73 nM | 3880 nM
5 | Cc1ccc(-c2ccccc2OCC(=O)Nc2ccc(-c3ccc(CC(=O)O)cc3)cc2Cl)c(Cl)c1 | 177 nM |  | 
6 | Cc1ccc(-c2c(SCC(=O)Nc3ccc(-c4ccc(CC(=O)O)cc4)cc3Cl)cnn2C)c(Cl)c1 | 1.9 nM |  | 
7 | Cc1ccc(-c2c(SCC(=O)Nc3ccc(-c4ccc(OCC(=O)O)cc4)cc3Cl)ccn2C)c(Cl)c1 | > 1000 nM |  | 
8 | Cc1ccc(-n2c(C)cnc2SCC(=O)Nc2ccc(-c3ccc(CC(=O)O)cc3)cc2Cl)c(Cl)c1 | 9.5 nM |  | 
9 | Cc1ccc(-c2nnsc2SCC(=O)Nc2ccc(-c3ccc(CC(=O)O)cc3)cc2Cl)c(Cl)c1 | 2 nM |  | 
10 | Cc1ccc(-c2ncsc2SCC(=O)Nc2ccc(-c3ccc(CC(=O)O)cc3)cc2Cl)c(Cl)c1 | 200 nM |  | 
11 | C/C(=C/CCC(=O)Nc1ccc(-c2ccc(OCC(=O)O)cc2)cc1Cl)c1ccc(C)cc1Cl | 15 nM |  | 
12 | C/C(=C\CCC(=O)Nc1ccc(-c2ccc(OCC(=O)O)cc2)cc1Cl)c1ccc(C)cc1Cl | 272 nM |  | 
13 | Cc1ccc(-c2ncoc2SCC(=O)Nc2ccc(-c3ccc(CC(=O)O)cc3)cc2Cl)c(Cl)c1 | 365 nM |  | 
14 | CC(C)(C)c1ccc(-c2c[nH]nc2OCC(=O)Nc2ccc(-c3ccc(CC(=O)O)cc3)cc2Cl)c(Cl)c1 | > 3300 nM | 444 nM | 4870 nM
15 | Cc1ccc(-n2nccc2SCC(=O)Nc2ccc(-c3ccc(CC(=O)O)cc3)cc2Cl)c(Cl)c1 | 7.9 nM |  | 
16 | Cc1ccc(-n2ncc(C)c2SCC(=O)Nc2ccc(-c3ccc(CC(=O)O)cc3)cc2Cl)c(Cl)c1 | > 10000 nM |  | 
17 | Cc1ccc(-n2nccc2OCC(=O)Nc2ccc(-c3ccc(CC(=O)O)cc3)cc2Cl)c(Cl)c1 | 18 nM |  | 
18 | Cc1ccc(-c2ccccc2SCC(=O)Nc2ccc(-c3ccc(CC(=O)O)cc3)cc2Cl)c(Cl)c1 | 18 nM |  | 
19 | Cc1ccc(-n2nncc2SCC(=O)Nc2ccc(-c3ccc(CC(=O)O)cc3)cc2Cl)c(Cl)c1 | 2.4 nM |  | 
20 | Cc1[nH]nc(OCC(=O)Nc2ccc(C#CC(C)(C)CO)cc2Cl)c1-c1ccc(C(C)(C)C)cc1Cl | > 3330 nM | 177 nM | > 5000 nM
21 | C/C(=C/CCC(=O)Nc1ccc(-c2ccc(CC(=O)O)cc2)cc1Cl)c1ccc(C)cc1Cl | 2.4 nM |  | 
